Reference: ChEMBL document CHEMBL1201862, “PubChem BioAssay data set” (2004)
Active and inactive are the calls of the source.

What was measured:
[1] = molecular target: DNA dC->dU-editing enzyme APOBEC-3A (Homo sapiens, UniProt P31941); test: APOBEC3A DNA deaminase inhibitors, dose response, biochemical (AID 504722); type: functional
[2] = molecular target: DNA dC->dU-editing enzyme APOBEC-3G (Homo sapiens, UniProt Q9HC16); test: Dose Response confirmation of small molecule APOBEC3G DNA Deaminase Inhibitors via a fluorescence-based single-stranded DNA deaminase assay. [Related pubchem assays (depositor defined):AID493012, AID493028]; type: functional
DNA dC->dU-editing enzyme APOBEC-3G, sequence (Q9HC16 whole entry, the tested form may be a part): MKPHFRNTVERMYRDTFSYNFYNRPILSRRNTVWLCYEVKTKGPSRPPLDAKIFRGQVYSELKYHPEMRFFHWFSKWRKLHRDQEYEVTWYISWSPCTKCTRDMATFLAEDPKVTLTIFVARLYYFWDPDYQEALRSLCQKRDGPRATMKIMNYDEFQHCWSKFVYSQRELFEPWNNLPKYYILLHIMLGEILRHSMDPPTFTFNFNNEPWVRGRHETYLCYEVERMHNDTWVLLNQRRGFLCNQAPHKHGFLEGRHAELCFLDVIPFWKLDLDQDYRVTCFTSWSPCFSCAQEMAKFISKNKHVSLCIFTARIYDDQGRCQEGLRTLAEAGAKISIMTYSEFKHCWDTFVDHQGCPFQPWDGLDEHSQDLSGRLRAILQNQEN

[3] = molecular target: Envelope glycoprotein gp160 (Human immunodeficiency virus 1, UniProt Q6QLK5); test: inhibitors of HIV fusion peptide binding, primary screen, biochemical, uHTS, fluorescence dequenching (AID 1986)
Envelope glycoprotein gp160, sequence (Q6QLK5 whole entry, the tested form may be a part): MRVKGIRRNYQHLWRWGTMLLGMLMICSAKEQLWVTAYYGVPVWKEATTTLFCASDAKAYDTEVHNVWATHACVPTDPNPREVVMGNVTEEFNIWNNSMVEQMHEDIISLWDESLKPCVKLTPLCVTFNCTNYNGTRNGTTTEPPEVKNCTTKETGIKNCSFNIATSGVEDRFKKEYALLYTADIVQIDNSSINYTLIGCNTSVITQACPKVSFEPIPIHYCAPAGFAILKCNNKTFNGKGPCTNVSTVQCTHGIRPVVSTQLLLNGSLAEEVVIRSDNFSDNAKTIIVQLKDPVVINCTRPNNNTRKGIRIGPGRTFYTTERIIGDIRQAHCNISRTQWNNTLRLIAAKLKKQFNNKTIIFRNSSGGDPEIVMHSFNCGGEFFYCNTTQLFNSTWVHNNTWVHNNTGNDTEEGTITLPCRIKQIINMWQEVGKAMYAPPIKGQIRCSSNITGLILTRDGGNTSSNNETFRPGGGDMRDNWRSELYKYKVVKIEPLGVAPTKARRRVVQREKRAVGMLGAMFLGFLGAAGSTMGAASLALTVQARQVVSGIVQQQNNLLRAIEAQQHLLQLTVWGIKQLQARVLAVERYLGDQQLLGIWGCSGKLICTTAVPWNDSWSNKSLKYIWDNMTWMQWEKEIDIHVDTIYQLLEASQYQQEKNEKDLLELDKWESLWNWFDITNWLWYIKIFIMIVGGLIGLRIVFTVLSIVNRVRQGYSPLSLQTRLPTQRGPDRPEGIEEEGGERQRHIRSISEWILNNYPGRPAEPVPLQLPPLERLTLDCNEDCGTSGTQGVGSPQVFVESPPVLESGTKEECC

[4] = molecular target: T1, Aminopeptidase N (Plasmodium falciparum FcB1/Columbia, UniProt O96935); test: P. falciparum M1AAP inhibitors, biochemical, fluorogenic H-Leu-NHMec substrate, 1536-well (AID 1445); design: species or system Plasmodium falciparum 3D7, 3D7
T1 sequence (O96935 whole entry): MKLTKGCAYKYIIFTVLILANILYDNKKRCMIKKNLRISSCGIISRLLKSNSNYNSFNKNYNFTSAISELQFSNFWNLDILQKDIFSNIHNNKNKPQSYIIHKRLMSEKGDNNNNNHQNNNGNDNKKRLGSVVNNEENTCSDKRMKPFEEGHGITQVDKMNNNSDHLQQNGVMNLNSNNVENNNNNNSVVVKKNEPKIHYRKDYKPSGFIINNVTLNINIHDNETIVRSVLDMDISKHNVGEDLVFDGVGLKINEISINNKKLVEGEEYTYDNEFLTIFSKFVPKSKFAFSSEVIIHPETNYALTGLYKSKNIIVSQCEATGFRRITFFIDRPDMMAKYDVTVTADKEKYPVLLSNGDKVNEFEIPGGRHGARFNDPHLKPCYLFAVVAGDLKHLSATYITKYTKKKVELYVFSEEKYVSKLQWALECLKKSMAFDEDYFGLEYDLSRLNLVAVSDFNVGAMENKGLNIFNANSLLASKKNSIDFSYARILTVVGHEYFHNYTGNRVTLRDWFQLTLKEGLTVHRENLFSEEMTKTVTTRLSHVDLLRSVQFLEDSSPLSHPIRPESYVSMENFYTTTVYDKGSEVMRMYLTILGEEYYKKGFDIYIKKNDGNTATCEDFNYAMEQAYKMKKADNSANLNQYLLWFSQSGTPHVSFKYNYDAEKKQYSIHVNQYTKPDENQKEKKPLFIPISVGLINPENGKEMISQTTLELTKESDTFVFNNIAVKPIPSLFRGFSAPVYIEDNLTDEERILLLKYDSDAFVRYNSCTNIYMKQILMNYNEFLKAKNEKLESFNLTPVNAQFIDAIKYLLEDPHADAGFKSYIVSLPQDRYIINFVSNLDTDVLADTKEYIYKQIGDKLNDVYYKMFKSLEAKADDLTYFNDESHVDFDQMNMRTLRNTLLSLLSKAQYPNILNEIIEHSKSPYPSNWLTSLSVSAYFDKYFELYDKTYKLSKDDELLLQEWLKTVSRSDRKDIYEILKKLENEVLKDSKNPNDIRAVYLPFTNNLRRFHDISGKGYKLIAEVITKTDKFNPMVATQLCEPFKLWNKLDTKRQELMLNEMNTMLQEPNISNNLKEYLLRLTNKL

[5] = cytotoxicity in HPDE-C7 cells, cell-based, fluorescence, HTS (AID 430); type: functional; settings: Homo sapiens
[6] = cytotoxicity in KRAS-transformed pancreatic duct cells, primary screen, cell-based, fluorescence, HTS (AID 431); type: functional; settings: Homo sapiens;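 further: cell line used: HPDE-C7K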
[7] = molecular target: T2, Estrogen receptor beta (Homo sapiens, UniProt Q92731);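 further: recombinant ER-beta bound to coactivator SRC1 peptide in presence of estradiol agonist; inhibitors block coactivator peptide binding and lower the FRET signal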
T2 sequence (Q92731 whole entry): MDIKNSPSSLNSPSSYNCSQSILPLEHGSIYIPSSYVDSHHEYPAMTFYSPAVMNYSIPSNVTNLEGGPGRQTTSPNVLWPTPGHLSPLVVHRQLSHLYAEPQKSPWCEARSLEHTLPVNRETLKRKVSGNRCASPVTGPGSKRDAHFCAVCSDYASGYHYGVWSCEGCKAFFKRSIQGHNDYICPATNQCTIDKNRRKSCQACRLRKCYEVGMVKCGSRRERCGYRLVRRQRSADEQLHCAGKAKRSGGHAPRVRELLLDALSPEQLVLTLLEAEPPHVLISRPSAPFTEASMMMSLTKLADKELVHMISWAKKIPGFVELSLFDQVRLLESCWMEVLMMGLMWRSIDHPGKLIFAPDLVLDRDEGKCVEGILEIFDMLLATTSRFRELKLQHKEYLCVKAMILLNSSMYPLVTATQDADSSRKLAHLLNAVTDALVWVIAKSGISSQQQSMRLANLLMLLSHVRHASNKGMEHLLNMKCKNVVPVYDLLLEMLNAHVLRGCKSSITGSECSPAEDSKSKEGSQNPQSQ

[8] = molecular target: T2, Estrogen receptor beta; test: ERβ–SRC-3 coactivator interaction inhibitors, confirmation, orthogonal assay, biochemical, ELISA, streptavidin-HRP readout (AID 1060)
[9] = molecular target: T3, Calpain-2 catalytic subunit (Sus scrofa, UniProt P43367); test: pig calpain II inhibitor potency, dose response, biochemical, fluorogenic peptide substrate (AID 1420); type: functional
T3 sequence (P43367 whole entry): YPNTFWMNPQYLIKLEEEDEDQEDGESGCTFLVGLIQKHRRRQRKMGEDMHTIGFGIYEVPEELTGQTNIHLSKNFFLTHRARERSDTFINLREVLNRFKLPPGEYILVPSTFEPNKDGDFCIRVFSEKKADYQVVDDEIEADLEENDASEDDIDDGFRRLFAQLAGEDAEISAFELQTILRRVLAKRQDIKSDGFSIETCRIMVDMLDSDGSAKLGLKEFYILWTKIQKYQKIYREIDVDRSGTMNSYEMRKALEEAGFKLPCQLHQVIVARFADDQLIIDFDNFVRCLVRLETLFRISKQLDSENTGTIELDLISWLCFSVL

[10] = molecular target: Induced myeloid leukemia cell differentiation protein Mcl-1 (Homo sapiens, UniProt Q07820); type: functional
Induced myeloid leukemia cell differentiation protein Mcl-1, sequence (Q07820 whole entry): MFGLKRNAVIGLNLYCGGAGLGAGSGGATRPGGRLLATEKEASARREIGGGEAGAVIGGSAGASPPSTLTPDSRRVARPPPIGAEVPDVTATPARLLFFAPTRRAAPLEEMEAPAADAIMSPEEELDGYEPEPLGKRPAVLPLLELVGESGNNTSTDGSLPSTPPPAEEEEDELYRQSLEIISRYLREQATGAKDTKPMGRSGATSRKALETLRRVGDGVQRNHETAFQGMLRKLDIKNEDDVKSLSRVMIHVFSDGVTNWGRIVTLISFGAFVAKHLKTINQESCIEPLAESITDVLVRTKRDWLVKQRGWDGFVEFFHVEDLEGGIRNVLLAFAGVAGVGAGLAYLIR

[11] = molecular target: Large T antigen (Simian virus 40, UniProt P03070); test: A confirmatory biochemical assay using the ADP-Hunter methodology, purified TAg, and ATP to quantify activity of synthesized compounds that inhibit the ATPase activity of Tag (3). [Related pubchem assays (depositor defined):AID1903, AID1909, AID2102, AID2501, AID2615, AID2775, AID435001, AID449729]; design: species or system Betapolyomavirus macacae
Large T antigen, sequence (P03070 whole entry): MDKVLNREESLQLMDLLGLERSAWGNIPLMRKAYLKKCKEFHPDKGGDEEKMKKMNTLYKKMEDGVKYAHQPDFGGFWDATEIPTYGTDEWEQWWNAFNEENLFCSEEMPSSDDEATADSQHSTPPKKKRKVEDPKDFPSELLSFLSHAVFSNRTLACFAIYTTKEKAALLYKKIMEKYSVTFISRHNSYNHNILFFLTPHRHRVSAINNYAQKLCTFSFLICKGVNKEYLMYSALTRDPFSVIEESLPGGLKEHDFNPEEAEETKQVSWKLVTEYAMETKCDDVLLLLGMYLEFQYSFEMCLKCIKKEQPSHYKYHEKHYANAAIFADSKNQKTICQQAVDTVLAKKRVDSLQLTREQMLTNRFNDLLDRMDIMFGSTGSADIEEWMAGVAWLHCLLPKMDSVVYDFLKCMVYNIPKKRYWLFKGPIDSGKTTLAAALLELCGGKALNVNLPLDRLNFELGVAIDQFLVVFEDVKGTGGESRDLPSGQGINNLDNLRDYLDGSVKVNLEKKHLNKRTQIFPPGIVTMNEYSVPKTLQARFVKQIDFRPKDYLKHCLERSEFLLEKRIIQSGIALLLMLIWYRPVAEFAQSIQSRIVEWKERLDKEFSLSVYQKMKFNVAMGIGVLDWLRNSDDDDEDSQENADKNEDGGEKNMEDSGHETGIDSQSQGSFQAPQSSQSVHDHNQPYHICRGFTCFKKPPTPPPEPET

[12] = HeLa 2N DNA content increase, dose response, cell-based, IC50 (AID 1117349); type: functional
[13] = Concentration-dependent survival of SW480 colon cancer line, luminescence detection with CellTiter-Glo, half-maximal inhibitory concentration (AID 1117338); type: functional
[14] = RKO cell viability reduction, dose response, CellTiter-Glo luminescence (AID 1117322); type: functional
[15] = cytotoxicity toward HCT116 cells – cell-based, CellTiter-Glo luminescence, IC50, dose response (AID 1117332); type: functional; settings: HCT-116
[16] = SNU-C1 cell viability reduction, dose response, CellTiter-Glo luminescence (AID 1117323); type: functional, cell-based
[17] = half-maximal inhibitory concentration for glucagon-like peptide-1 release, STC-1 cell line, dose-response (AID 1117345); type: functional, cell-based
[18] = cytotoxicity toward Colo320 cells – cell-based, CellTiter-Glo luminescence, IC50, dose response (AID 1117334); type: functional; settings: COLO 320
[19] = HeLa 4N DNA content increase, dose response, cell-based, IC50 (AID 1117351); type: functional
[20] = cytotoxicity toward HT-29 cells – cell-based, CellTiter-Glo luminescence, IC50, dose response (AID 1117330); type: functional
[21] = CellTiter-Glo luminescent dose response of DLD-1 viability loss (AID 1117352); type: functional
[22] = HCT116 cell viability decrease, GSK3B pretreatment – CellTiter-Glo, IC50, dose response (AID 1117339); type: functional; settings: HCT-116
[23] = Glucagon-like peptide 1 release potency, NCI-H716 cell line, dose-response, half-maximal inhibitory concentration (AID 1117344); type: functional, cell-based

DNA dC->dU-editing enzyme APOBEC-3A, sequence (P31941 whole entry): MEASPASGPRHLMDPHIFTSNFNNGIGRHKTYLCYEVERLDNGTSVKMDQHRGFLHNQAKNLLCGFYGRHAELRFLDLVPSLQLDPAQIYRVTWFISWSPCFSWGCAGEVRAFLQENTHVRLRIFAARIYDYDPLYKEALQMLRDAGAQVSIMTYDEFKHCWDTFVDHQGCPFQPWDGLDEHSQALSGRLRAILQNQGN

Cc1ccc(-c2nnc(S)n2/N=C\c2ccco2)cc1
inactive: IC50 [1] > 100000 nM
active: IC50 [2] 2860 nM

Oc1c(Cl)cc(Cl)cc1Sc1cc(Cl)cc(Cl)c1O [BITHIONOL]
inactive: IC50 [12] > 10000 nM | IC50 [17] > 20000 nM | IC50 [19] > 10000 nM | IC50 [23] 19400 nM
active: IC50 [3] 6160 nM | IC50 [4] 42900 nM | EC50 [5] 1210 nM | EC50 [6] 1340 nM | IC50 [7] 8150 nM | IC50 [10] 1900 nM | IC50 [11] 35700 nM | IC50 [13] 1 nM | IC50 [14] 1 nM | IC50 [15] 1 nM | IC50 [16] 8.67 nM | IC50 [18] 15 nM | IC50 [20] 996 nM | IC50 [21] 1 nM | IC50 [22] 1 nM
4750 nM (not active): IC50 [9]
> 109000 nM (not active): IC50 [8]
